Assay: Inhibition of [3H]c[D-Pen2,p-Cl-Phe4,D-Pen5]enkephalin binding to delta opioid receptor of guinea pig brain plasma membrane homogenates

Structure (SMILES) | IC50 [nM]
CC[C@H](C)[C@H](NC(=O)[C@H](CCCCN)NC(=O)[C@H](CCCNC(=N)N)NC(=O)[C@H](CC(C)C)NC(=O)[C@H](Cc1ccccc1)NC(=O)[C@@H](CC(=O)O)NC(=O)CNC(=O)[C@@H](N)Cc1ccc(O)cc1)C(=O)N[C@@H](CCCNC(=N)N)C(=O)N1CCC[C@H]1C(=O)N[C@@H](CCCCN)C(N)=O [Cyclic Lactam Peptide Analogues of Dynorphin A(1-11)-NH2] | 870
CC[C@H](C)[C@H](NC(=O)[C@H](CCCNC(=N)N)NC(=O)[C@@H]1CCCCNC(=O)C[C@@H](NC(=O)[C@@H](N)Cc2ccc(O)cc2)C(=O)NCC(=O)N[C@@H](Cc2ccccc2)C(=O)N[C@@H](CC(C)C)C(=O)N1)C(=O)N[C@@H](CCCNC(=N)N)C(=O)N1CCC[C@H]1C(=O)N[C@@H](CCCCN)C(N)=O [Cyclic Lactam Peptide Analogues of Dynorphin A(1-11)-NH2] | 910
CC[C@H](C)[C@H](NC(=O)[C@H](CCCNC(=N)N)NC(=O)[C@@H]1CCCCNC(=O)C[C@H](NC(=O)[C@@H](N)Cc2ccc(O)cc2)C(=O)NCC(=O)N[C@@H](Cc2ccccc2)C(=O)N[C@@H](CC(C)C)C(=O)N1)C(=O)N[C@@H](CCCNC(=N)N)C(=O)N1CCC[C@H]1C(=O)N[C@@H](CCCCN)C(N)=O [Cyclic Lactam Peptide Analogues of Dynorphin A(1-11)-NH2Cyclic Lactam Peptide Analogues of Dynorphin A(1-11)-NH2] | 12

Source: BindingDB's records for doi:10.1021/jm950369c (University of Arizona, 1996)
